pIC50: −log10 of the molar value.
System: KRAS patient-derived spheroids with HUVEC/MSC, viability
Assay: Anticancer human tumor 941728-121-R-J1-PDC patient-derived lung adenocarcinoma cell line growth inhibition [KRAS2]
Conditions: for pIC50: curve of first compound; for viability, T/C: stronger effect = lower value
Text: Multicellular complex tumor spheroid response to RAS pathway inhibitors in combination with a targeted agents in patient-derived cell lines with oncogenic KRAS variants from multiple cancer types
A high-throughput screen of multi-cell type tumor spheroids was designed to identify active combinations of targeted small molecules and KRAS pathway inhibitors. Complex spheroids include a stromal component modeled by human endothelial cells (HUVEC) and fibroblasts modeled by human mesenchymal stem cells (MSCs). The concentration ranges selected for each drug and investigational agent were based upon clinically achievable concentrations if the clinical Cmax of the agent was known.
Compounds. The drugs and investigational agents: BI-3406 (NSC825286), BAY-293 (NSC824723), batoprotafib (TNO155; NSC825523), sotorasib (AMG 510; NSC818433), MRTX1257 (NSC819558), elimusertib (BAY 1895344; NSC800525), molibresib (GSK525762; NSC774829), temuterkib (LY3214996; NSC803410), venetoclax (NSC766270), alisertib (NSC759677), olaparib (NSC753686), talazoparib (NSC767125), erdafitinib (NSC781556), ipatasertib (NSC767898), cabozantinib (NSC761068), nintedanib (NSC756659), abemaciclib (NSC768073), docetaxel (NSC628503), trametinib (NSC758246), and sapanisertib (NSC764658) were obtained from the National Cancer Institute (NCI) Developmental Therapeutics Program Chemical Repository. The FDA-approved anticancer drug set is available from the Developmental Therapeutics Program. […] The stock solutions were prepared in dimethyl sulfoxide (DMSO, Sigma-Aldrich, St. Louis, MO, cat. D2650) at 800-fold the tested concentration and stored at -70 degrees C prior to their use. All drugs and investigational agents were tested over a range starting from a high concentration at or near the clinical Cmax and decreasing in half-log increments. If the clinical Cmax for an agent had not been determined, the highest concentration tested was 10 microM.
Cell Culture. All cells were maintained in an incubator at 37 degrees C and 5% CO2 with 95% humidity. The PDC lines were cultured according to standard operating procedures established by the NCI PDMR (https://pdmr.cancer.gov/sops/default.htm). Briefly, all PDCs were thawed and cultured in Matrigel-coated flasks prepared with a working solution of 1X Ham's F-12 nutrient mix, without supplementation (Invitrogen, Waltham, MA, cat. 11765054), 100 U/mL penicillin-streptomycin (Invitrogen, cat. 15140122), and 2.5% Matrigel (Corning Inc., Corning, NY, cat. 354248) for the first three passages. All PDCs were cultured in complete DMEM/F-12 media containing advanced DMEM/F-12 (Invitrogen, cat. 12634028), 4.9% defined fetal bovine serum, heat inactivated (HyClone Laboratories Inc., Logan, UT, cat. SH30070.03HI), 389 ng/mL hydrocortisone (Sigma-Aldrich, cat. H4001), 9.7 ng/mL human EGF recombinant protein (Invitrogen, cat. PHG0313), 23.4 microg/mL adenine (Sigma-Aldrich, cat. A2786), 97.3 U/mL penicillin-streptomycin (Invitrogen, cat. 15140122), 1.9 mM L-glutamine (Invitrogen, cat. 25030081), and 9.7 microM Y-27632 dihydrochloride (Tocris Bioscience, Bristol, United Kingdom, cat. 1254). The PDCs were cultured in complete DMEM/F12 media without 9.7 microM Y-27632 dihydrochloride for at least two passages prior to the screen. The established cell line HOP-62 was cultured in RPMI 1640 medium, HEPES (Invitrogen, cat. 22400105) with 10% defined fetal bovine serum (HyClone Laboratories Inc., cat. SH30070.03) and 2 mM L-glutamine (Invitrogen, cat. 25030081). The pooled donor HUVEC were cultured in endothelial cell growth medium 2 (PromoCell, Heidelberg, Germany, cat. C-22011) and the hMSC were cultured in mesenchymal stem cell growth medium 2 (PromoCell, cat. C-28009). For all experiments, HUVEC and hMSC were used at passages </=5, while the malignant cell lines were used at passages </=15. […]

[1] = second compound 0.1 µM, first compound 0.0316 µM
[2] = second compound 0.1 µM, first compound 0.1 µM
[3] = second compound 0.1 µM, first compound 0.316 µM
[4] = second compound 0.1 µM, first compound 1 µM
[5] = second compound 0.1 µM, first compound 3.16 µM
[6] = second compound 0.1 µM, first compound 10 µM
[7] = second compound 0.316 µM, first compound 0.0316 µM
[8] = second compound 0.316 µM, first compound 0.1 µM
[9] = second compound 0.316 µM, first compound 0.316 µM
[10] = second compound 0.316 µM, first compound 1 µM
[11] = second compound 0.316 µM, first compound 3.16 µM
[12] = second compound 0.316 µM, first compound 10 µM
[13] = second compound 1 µM, first compound 0.0316 µM
[14] = second compound 1 µM, first compound 0.1 µM
[15] = second compound 1 µM, first compound 0.316 µM
[16] = second compound 1 µM, first compound 1 µM
[17] = second compound 1 µM, first compound 3.16 µM
[18] = second compound 1 µM, first compound 10 µM
[19] = second compound 3.16 µM, first compound 0.0316 µM
[20] = second compound 3.16 µM, first compound 0.1 µM
[21] = second compound 3.16 µM, first compound 0.316 µM
[22] = second compound 3.16 µM, first compound 1 µM
[23] = second compound 3.16 µM, first compound 3.16 µM
[24] = second compound 3.16 µM, first compound 10 µM
[25] = second compound 10 µM, first compound 0.0316 µM
[26] = second compound 10 µM, first compound 0.1 µM
[27] = second compound 10 µM, first compound 0.316 µM
[28] = second compound 10 µM, first compound 1 µM
[29] = second compound 10 µM, first compound 3.16 µM
[30] = second compound 10 µM, first compound 10 µM
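Note: spheroids exposed to agents for seven days before readout.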

| Compound | pIC50 (second compound 0.1 µM) | pIC50 (second compound 0.316 µM) | pIC50 (second compound 1 µM) | pIC50 (second compound 3.16 µM) | viability, T/C [1] [%] | viability, T/C [2] [%] | viability, T/C [3] [%] | viability, T/C [4] [%] | viability, T/C [5] [%] | viability, T/C [6] [%] | viability, T/C [7] [%] | viability, T/C [8] [%] | viability, T/C [9] [%] | viability, T/C [10] [%] | viability, T/C [11] [%] | viability, T/C [12] [%] | viability, T/C [13] [%] | viability, T/C [14] [%] | viability, T/C [15] [%] | viability, T/C [16] [%] | other results |
| --- | --- | --- | --- | --- | --- | --- | --- | --- | --- | --- | --- | --- | --- | --- | --- | --- | --- | --- | --- | --- | --- |
| COc1cc2nccc(Oc3ccc(NC(=O)C4(C(=O)Nc5ccc(F)cc5)CC4)cc3)c2cc1OC + C=CC(=O)N1CCN(c2nc(=O)n(-c3c(C)ccnc3C(C)C)c3nc(-c4c(O)cccc4F)c(F)cc23)C(C)C1 | > 7.50 | > 7.50 | > 7.50 | > 7.50 | 14.6 | 14.5 | 12.8 | 11.6 | 7.75 | 8.03 | 15 | 15.7 | 11.6 | 11.6 | 6.81 | 8.86 | 17.4 | 16.8 | 14.5 | 12.3 | pIC50 (second compound 10 µM): > 7.50; viability, T/C [17]: 6.93%; viability, T/C [18]: 8.12%; viability, T/C [19]: 17.6%; viability, T/C [20]: 16.4%; viability, T/C [21]: 15.3%; viability, T/C [22]: 16.7%; viability, T/C [23]: 7.9%; viability, T/C [24]: 8.84%; viability, T/C [25]: 19.1%; viability, T/C [26]: 19.5%; viability, T/C [27]: 15.3%; viability, T/C [28]: 13%; viability, T/C [29]: 8.1%; viability, T/C [30]: 9.93% |
| CC(C)NCC(C(=O)N1CCN(c2ncnc3c2C(C)CC3O)CC1)c1ccc(Cl)cc1 (stereo unspecified) |  |  |  |  |  |  |  |  |  |  |  |  |  |  |  |  |  |  |  |  | viability, T/C (compound 0.0316 µM): 92.1% [middle of 5 runs]; viability, T/C (compound 0.1 µM): 90.6% [middle of 5 runs]; viability, T/C (compound 0.316 µM): 56.5% [middle of 5 runs]; viability, T/C (compound 1 µM): 43.8% [middle of 5 runs]; viability, T/C (compound 10 µM): 31.9% [middle of 5 runs]; IC50 (curve of compound): 592 nM [middle of 5 runs] |
| COc1cc2nccc(Oc3ccc(NC(=O)C4(C(=O)Nc5ccc(F)cc5)CC4)cc3)c2cc1OC + C=CC(=O)N1CCN(c2nc(OCC3CCCN3C)nc3c2CCN(c2cccc4cccc(C)c24)C3)CC1CC#N | > 7.50 | > 7.50 | > 7.50 | > 7.50 | 14.3 | 15.8 | 15.3 | 13.3 | 5.66 | 6.73 | 15.4 | 16.3 | 13.1 | 13.7 | 4.32 | 5.26 | 14.2 | 14.5 | 10.5 | 7.23 | pIC50 (second compound 0.0316 µM): > 7.50; viability, T/C (second compound 0.0316 µM, first compound 0.0316 µM): 17.9%; viability, T/C (second compound 0.0316 µM, first compound 0.1 µM): 18%; viability, T/C (second compound 0.0316 µM, first compound 0.316 µM): 15.1%; viability, T/C (second compound 0.0316 µM, first compound 1 µM): 13.3%; viability, T/C (second compound 0.0316 µM, first compound 3.16 µM): 7.03%; viability, T/C (second compound 0.0316 µM, first compound 10 µM): 7.62%; viability, T/C [17]: 1.37%; viability, T/C [18]: 0.49%; viability, T/C [19]: 0.1%; viability, T/C [20]: 0.12%; viability, T/C [21]: 0.12%; viability, T/C [22]: 0.09%; viability, T/C [23]: 0.09%; viability, T/C [24]: 0.19% |
| CCNC(=O)CC1N=C(c2ccc(Cl)cc2)c2cc(OC)ccc2-n2c(C)nnc21 (stereo unspecified) + C=CC(=O)N1CCN(c2nc(=O)n(-c3c(C)ccnc3C(C)C)c3nc(-c4c(O)cccc4F)c(F)cc23)C(C)C1 | > 7.50 | > 7.50 | > 7.50 | > 7.50 | 25.4 | 27 | 21.2 | 14.3 | 11.7 | 10.8 | 27.4 | 23.8 | 20.4 | 14.7 | 13 | 10.3 | 28.9 | 28.7 | 21.7 | 16.2 | pIC50 (second compound 10 µM): > 7.50; viability, T/C [17]: 14%; viability, T/C [18]: 10.7%; viability, T/C [19]: 30.4%; viability, T/C [20]: 28%; viability, T/C [21]: 22.5%; viability, T/C [22]: 18.3%; viability, T/C [23]: 11.6%; viability, T/C [24]: 8.77%; viability, T/C [25]: 34.1%; viability, T/C [26]: 31.6%; viability, T/C [27]: 23.4%; viability, T/C [28]: 15.1%; viability, T/C [29]: 11%; viability, T/C [30]: 8.28% |
